# Assay results taken from US20080132536A1, “PYRAZOLO [3,4-B] PYRIDINE COMPOUNDS, AND THEIR USE AS PDE4 INHIBITORS” (Glaxo Group Limited, priority 2003, published 2008).
# Target: T1, PDE4B (human recombinant) (Homo sapiens, UniProt Q07343)
# T1 construct: made in house
# Experiment: PDE4B inhibition, radioactive SPA and/or IMAP fluorescence polarisation (FP) assay
# Format: biochemical
# Conditions: one reading or average of several (ca. 2-6) readings; SPA and/or FP assay; range given for a group of Examples; read-out: PDE4B pIC50 (±about 0.5) (converted)
# Text: Human recombinant PDE4B, in particular the 2B splice variant thereof (HSPDE4B2B), is disclosed in WO 94/20079 and also M. M. McLaughlin et al., “A low Km, rolipram-sensitive, cAMP-specific phosphodiesterase from human brain: cloning and expression of cDNA, biochemical characterisation of recombinant protein, and tissue distribution of mRNA”, J. Biol. Chem., 1993, 268, 6470-6476. For example, in Example 1 of WO 94/20079, human recombinant PDE4B is described as being expressed in the PDE-deficient yeast Saccharomyces cerevisiae strain GL62, e.g. after induction by addition of 150 uM CuSO4, and 100,000×g supernatant fractions of yeast cell lysates are described for use in the harvesting of PDE4B enzyme.
# The ability of compounds to inhibit catalytic activity at PDE4B or 4D (human recombinant), PDE3 (from bovine aorta), PDE5 (human recombinant) or PDE6 (from bovine retina) can optionally be determined by Scintillation Proximity Assay (SPA) in 96-well format.
# Test compounds (as a solution in DMSO, preferably about 2 microlitre (ul) volume of DMSO solution) are preincubated at ambient temperature (room temperature, e.g. 19-23° C.) in Wallac Isoplates (code 1450-514) with PDE enzyme in 50 mM Tris-HCl buffer pH 7.5, 8.3 mM MgCl2, 1.7 mM EGTA, 0.05% (w/v) bovine serum albumin for 10-30 minutes (usually 30 minutes). The enzyme concentration is adjusted so that no more than 20% hydrolysis of the substrate defined below occurs in control wells without compound, during the incubation. For the PDE3, PDE4B and PDE4D assays, [5′,8-3H]Adenosine 3′,5′-cyclic phosphate (Amersham Pharmacia Biotech, code TRK.559; or Amersham Biosciences UK Ltd, Pollards Wood, Chalfont St Giles, Buckinghamshire HP8 4SP, UK) is added to give 0.05 uCi per well and about 10 nM final concentration. For the PDE5 and PDE6 assays, [8-^3H]Guanosine 3′,5′-cyclic phosphate (Amersham Pharmacia Biotech, code TRK.392) is added to give 0.05 uCi per well and about 36 nM final concentration. Plates containing assay mixture, preferably approx. 100 ul volume of assay mixture, are mixed on an orbital shaker for 5 minutes and incubated at ambient temperature for 1 hour. Phosphodiesterase SPA beads (Amersham Pharmacia Biotech, code RPNQ 0150) are added (about 1 mg per well) to terminate the assay. Plates are sealed and shaken and allowed to stand at ambient temperature for 35 minutes to 1 hour (preferably 35 minutes) to allow the beads to settle. Bound radioactive product is measured using a WALLAC TRILUX 1450 Microbeta scintillation counter. For inhibition curves, 10 concentrations (1.5 nM-30 uM) of each compound are assayed. Curves are analysed using ActivityBase and XLfit (ID Business Solutions Limited, 2 Ocean Court, Surrey Research Park, Guildford, Surrey GU2 7QB, United Kingdom) Results are expressed as pIC50 values.
# The ability of compounds to inhibit catalytic activity at PDE4B (human recombinant) or PDE4D (human recombinant) can optionally be determined by IMAP Fluorescence Polarisation (FP) assay (IMAP Explorer kit, available from Molecular Devices Corporation, Sunnydale, Calif., USA; Molecular Devices code: R8062) in 384-well format.
# The IMAP FP assay is able to measure PDE activity in an homogenous, non-radioactive assay format. The FP assay uses the ability of immobilised trivalent metal cations, coated onto nanoparticles (tiny beads), to bind the phosphate group of Fl-AMP that is produced on the hydrolysis of fluorescein-labelled (Fl) cyclic adenosine mono-phosphate (Fl-cAMP) to the non-cyclic Fl-AMP form. […] Binding of Fl-AMP product to the beads (coated with the immobilised trivalent cations) slows the rotation of the bound Fl-AMP and leads to an increase in the fluorescence polarisation ratio of parallel to perpendicular light. Inhibition of the PDE reduces/inhibits this signal increase. […]
# T1 sequence (Q07343 1-564 isoform Q07343-2): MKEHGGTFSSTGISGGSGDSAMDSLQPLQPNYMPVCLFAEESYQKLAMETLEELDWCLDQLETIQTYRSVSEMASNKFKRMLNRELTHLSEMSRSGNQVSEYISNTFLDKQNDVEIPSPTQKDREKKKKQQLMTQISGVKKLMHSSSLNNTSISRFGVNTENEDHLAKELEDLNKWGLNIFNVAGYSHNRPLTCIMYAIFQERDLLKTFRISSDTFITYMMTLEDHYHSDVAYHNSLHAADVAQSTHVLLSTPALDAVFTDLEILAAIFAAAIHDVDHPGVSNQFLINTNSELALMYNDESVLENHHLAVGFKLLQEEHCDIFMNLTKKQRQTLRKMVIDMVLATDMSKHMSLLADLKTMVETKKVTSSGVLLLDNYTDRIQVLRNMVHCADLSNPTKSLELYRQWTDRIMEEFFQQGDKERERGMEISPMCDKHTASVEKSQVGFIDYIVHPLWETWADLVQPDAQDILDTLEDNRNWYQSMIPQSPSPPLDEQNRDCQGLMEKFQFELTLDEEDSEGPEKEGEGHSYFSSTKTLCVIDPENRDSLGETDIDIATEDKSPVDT
row,SMILES,IC50 [nM]
1,"CCn1ncc2c(NC3CCC(=O)CC3)c(C(=O)N[C@H](C)c3ccc(C)cc3)cnc21 [Example 191, 1-ethyl-N-[(1R)-1-(4-methylphenyl)ethyl]-4-[(4-oxocyclohexyl)amino]-1H-pyrazolo[3,4-b]pyridine-5-carboxamide]",0.1 to 2
2,"CCC(NC(=O)c1cnc2c(cnn2CC)c1NC1CCC(=O)CC1)c1ccc(C)cc1C (stereo not drawn) [Example 210, N-[1-(2,4-dimethylphenyl)propyl]-1-ethyl-4-[(4-oxocyclohexyl)amino]-1H-pyrazolo[3,4-b]pyridine-5-carboxamide]",0.1 to 2
3,"CCC(NC(=O)c1cnc2c(cnn2CC)c1NC1CCC(=O)CC1)c1ccc(Br)cc1 (stereo not drawn) [Example 218, N-[1-(4-bromophenyl)propyl]-1-ethyl-4-[(4-oxocyclohexyl)amino]-1H-pyrazolo[3,4-b]pyridine-5-carboxamide]",0.1 to 2
4,"CCC(NC(=O)c1cnc2c(cnn2CC)c1NC1CCC(=O)CC1)c1ccc(C)cc1 (stereo not drawn) [Example 221, 1-ethyl-N-[1-(4-methylphenyl)propyl]-4-[(4-oxocyclohexyl)amino]-1H-pyrazolo[3,4-b]pyridine-5-carboxamide]",0.1 to 2
5,"CCC(NC(=O)c1cnc2c(cnn2CC)c1NC1CCC(=NO)CC1)c1ccc(C)cc1 (stereo not drawn) [Example 252, 1-ethyl-4-{[4-(hydroxyimino)cyclohexyl]amino}-N-[1-(4-methylphenyl)propyl]-1H-pyrazolo[3,4-b]pyridine-5-carboxamide]",0.1 to 2
6,"CCC(NC(=O)c1cnc2c(cnn2CC)c1NC1CCC(=NO)CC1)c1ccc(C)c(C)c1 (stereo not drawn) [Example 261, N-[1-(3,4-dimethylphenyl)propyl]-1-ethyl-4-{[4-(hydroxyimino)cyclohexyl]amino}-1H-pyrazolo[3,4-b]pyridine-5-carboxamide]",0.1 to 2
7,"CCC(NC(=O)c1cnc2c(cnn2CC)c1NC1CCCC(O)C1)c1ccc(Cl)cc1 [Example 282, N-[1-(4-chlorophenyl)propyl]-1-ethyl-4-{[(1S,3R)-and/or (1R,3S)-3-hydroxycyclohexyl]amino}-1H-pyrazolo[3,4-b]pyridine-5-carboxamide]",0.1 to 2
8,"CC[C@@H](NC(=O)c1cnc2c(cnn2CC)c1N[C@H]1CC[C@@H](C(N)=O)CC1)c1ccc(C)cc1C [Example 352, 4-{[cis-4-(aminocarbonyl)cyclohexyl]amino}-N-[(1R)-1-(2,4-dimethylphenyl)propyl]-1-ethyl-1H-pyrazolo[3,4-b]pyridine-5-carboxamide]",0.501 to 3.16
9,"CCn1ncc2c(N[C@H]3CC[C@@H](C(N)=O)CC3)c(C(=O)N[C@H](C)c3ccc(C)cc3)cnc21 [Example 353, 4-{[cis-4-(aminocarbonyl)cyclohexyl]amino}-1-ethyl-N-[(1R)-1-(4-methylphenyl)ethyl]-1H-pyrazolo[3,4-b]pyridine-5-carboxamide]",0.501 to 3.16
10,"CCn1ncc2c(N[C@H]3CC[C@@H](C(N)=O)CC3)c(C(=O)N[C@H](C)c3ccccc3)cnc21 [Example 354, 4-{[cis-4-(aminocarbonyl)cyclohexyl]amino}-1-ethyl-N-[(1R)-1-phenylethyl]-1H-pyrazolo[3,4-b]pyridine-5-carboxamide]",0.501 to 3.16
11,"CCn1ncc2c(N[C@H]3CC[C@@H](C(N)=O)CC3)c(C(=O)N[C@H](C)c3ccc(Br)cc3)cnc21 [Example 355, 4-{[cis-4-(aminocarbonyl)cyclohexyl]amino}-N-[(1R)-1-(4-bromophenyl)ethyl]-1-ethyl-1H-pyrazolo[3,4-b]pyridine-5-carboxamide]",0.501 to 3.16
12,"CC[C@@H](NC(=O)c1cnc2c(cnn2CC)c1N[C@H]1CC[C@H](C(N)=O)CC1)c1ccc(C)cc1C [Example 356, 4-{[trans-4-(aminocarbonyl)cyclohexyl]amino}-N-[(1R)-1-(2,4-dimethylphenyl)propyl]-1-ethyl-1H-pyrazolo[3,4-b]pyridine-5-carboxamide]",39.8 to 158
13,"CCn1ncc2c(N[C@H]3CC[C@H](C(N)=O)CC3)c(C(=O)N[C@H](C)c3ccc(C)cc3)cnc21 [Example 357, 4-{[trans-4-(aminocarbonyl)cyclohexyl]amino}-1-ethyl-N-[(1R)-1-(4-methylphenyl)ethyl]-1H-pyrazolo[3,4-b]pyridine-5-carboxamide]",39.8 to 158
14,"CCn1ncc2c(N[C@H]3CC[C@H](C(N)=O)CC3)c(C(=O)N[C@H](C)c3ccccc3)cnc21 [Example 358, 4-{[trans-4-(aminocarbonyl)cyclohexyl]amino}-1-ethyl-N-[(1R)-1-phenylethyl]-1H-pyrazolo[3,4-b]pyridine-5-carboxamide]",39.8 to 158
15,"CCn1ncc2c(N[C@H]3CC[C@H](C(N)=O)CC3)c(C(=O)N[C@H](C)c3ccc(Br)cc3)cnc21 [Example 359, 4-{[trans-4-(aminocarbonyl)cyclohexyl]amino}-N-[(1R)-1-(4-bromophenyl)ethyl]-1-ethyl-1H-pyrazolo[3,4-b]pyridine-5-carboxamide]",39.8 to 158
